Assay results from patent publication US9708305B2, “Substituted 1,2,3,4-tetrahydroisoquinoline derivatives for the treatment of hormone-dependent diseases” (UNIVERSITÉ LAVAL, priority 2013, dated 2017).

How the values were obtained:
[1] = target: T1, STS (Homo sapiens, UniProt P08842); experiment: STS inhibition of libraries 1-EO to 4-EO, homogenate of STS transfected HEK-293 cells; type: biochemical; settings: mean ± SEM, triplicate
T1 construct: expressed in transfected cells; host or cells: HEK-293 cells stably transfected with STS (G418 selection), obtained from Dr. Van Luu-The; used as freeze-thaw homogenate
T1 sequence (P08842 22-583): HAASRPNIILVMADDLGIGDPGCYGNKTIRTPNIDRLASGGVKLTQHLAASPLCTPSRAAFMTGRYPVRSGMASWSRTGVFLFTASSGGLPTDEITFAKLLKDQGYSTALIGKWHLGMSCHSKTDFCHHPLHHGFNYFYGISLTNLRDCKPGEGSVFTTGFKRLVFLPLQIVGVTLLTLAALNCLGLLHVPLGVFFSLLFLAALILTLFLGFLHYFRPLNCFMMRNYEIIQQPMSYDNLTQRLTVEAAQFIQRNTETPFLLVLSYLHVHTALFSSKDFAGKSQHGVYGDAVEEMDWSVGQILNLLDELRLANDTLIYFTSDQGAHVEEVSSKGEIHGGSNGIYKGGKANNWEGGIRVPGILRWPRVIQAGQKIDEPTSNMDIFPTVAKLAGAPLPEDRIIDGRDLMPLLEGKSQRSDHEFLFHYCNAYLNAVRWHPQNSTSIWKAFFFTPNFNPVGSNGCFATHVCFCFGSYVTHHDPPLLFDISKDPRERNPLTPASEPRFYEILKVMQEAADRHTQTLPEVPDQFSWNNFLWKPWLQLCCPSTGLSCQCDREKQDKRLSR
Experimental: The enzymatic assay was performed using homogenate of STS transfected HEK-293 cells as the source of enzyme activity. The transformation of [^3H]-E1S into [^3H]-E1 was measured using scintillation counting of labeled E1S and E1 in the aqueous and organic phases, respectively. Newly synthesized sulfamate compounds were tested at two concentrations (0.1 μM and 1 μM). Libraries 1-EO and 2-EO were synthesized using the p- and m-benzamide spacers as 1st level of molecular diversity and the same wide variety of secondary amines as 2nd level of diversity (Table 2), which were chosen in a somewhat random fashion while including a different pattern, format and heteroatom. […] Compounds 1-EO-07, 1-EO-09 and 1-EO-10 represent a starting point for optimization, as they show more than 36% of inhibition when tested at a concentration of 0.1 μM. These compounds have relatively hydrophobic substituents compared to the rest of the library members. […] The average log P value for the rest of the library, excluding these three compounds, is 1.93.
This enzymatic assay was carried out according to a procedure previously described for the transformation of substrate [^3H]-E1S (100 μM) into [^3H]-E1 by homogenated HEK-293 cells over-expressing the enzyme activity.^56,73

[2] = test system: T-47D cells; experiment: T-47D cell proliferation (estrogenicity / cytotoxicity), MTS; type: cell-based; settings: Homo sapiens, T47D, control cells set to 100%, mean±SD
Experimental: The library of phenolic compounds described above was tested on estrogen-sensitive breast cancer T-47D cells.
In Table 1, cell proliferation of control cells is set to 100%. Results are expressed as mean±SD of one experiment in triplicate.
CellTitter 96® Aqueous One Solution Cell Proliferation Assay was used as an indirect colorimetric measurement of cell proliferation according to the manufacturer's instructions. Briefly, after the treatments, 20 μL of MTS solution was added to each well (100 μL) of the plates and incubated at 37° C. for 2 h (Saos-2) or 4 h (T-47D). The absorbance at 490 nm was then measured with a Thermo max microplate reader (Molecular Devices, Sunnyvale, Calif.). The control (culture media+DMSO) is set to 100% of cell proliferation.
The cells were plated in 96-well plates at a density of 3 000 cells/well and allowed to attach for 48 h. After this pre-incubation, the inhibitors and the reference compounds diluted in fresh culture media were added to the wells and replaced every 2 days for 7 days of treatment.

## NS(=O)(=O)Oc1ccc2c(c1)CN(C(=O)c1cccc(CN3CCc4ccccc4C3)c1)CC2 [4-EO-10]
[1]; 0.1 μM
  STS inhibition (%): 24.1 ± 5.6%
[1]; 1 μM
  STS inhibition (%): 50.2 ± 1.9%

## NS(=O)(=O)Oc1ccc2c(c1)CN(C(=O)c1cccc(CN(Cc3ccccc3)Cc3ccco3)c1)CC2 [4-EO-11]
[1]; 0.1 μM
  STS inhibition (%): 27.5 ± 0.9%

## CCN(Cc1cccc(Br)c1)Cc1cccc(C(=O)N2CCc3ccc(OS(N)(=O)=O)cc3C2)c1 [4-EO-12]
[1]; 0.1 μM
  STS inhibition (%): 20.9 ± 7.1%
[1]; 1 μM
  STS inhibition (%): 24.9 ± 0.6%

## CCN(Cc1ccc(Br)cc1)Cc1cccc(C(=O)N2CCc3ccc(OS(N)(=O)=O)cc3C2)c1 [4-EO-13]
[1]; 0.1 μM
  STS inhibition (%): 24.2 ± 4.9%

## CCN(Cc1cccc(C(=O)N2CCc3ccc(OS(N)(=O)=O)cc3C2)c1)Cc1ccccn1 [4-EO-14]
[1]; 0.1 μM
  STS inhibition (%): 6.5 ± 6.9%
[1]; 1 μM
  STS inhibition (%): 19.9 ± 12.6%

## CCN(Cc1cccnc1)Cc1cccc(C(=O)N2CCc3ccc(OS(N)(=O)=O)cc3C2)c1 [4-EO-15]
[1]; 0.1 μM
  STS inhibition (%): 14.3 ± 4.7%
[1]; 1 μM
  STS inhibition (%): 33.5 ± 5.8%

## CCN(Cc1ccncc1)Cc1cccc(C(=O)N2CCc3ccc(OS(N)(=O)=O)cc3C2)c1 [4-EO-16]
[1]; 0.1 μM
  STS inhibition (%): 33.3 ± 0.0%
[1]; 1 μM
  STS inhibition (%): 52.8 ± 1.3%

## CCN(Cc1ccc(F)cc1)Cc1cccc(C(=O)N2CCc3ccc(OS(N)(=O)=O)cc3C2)c1 [4-EO-17]
[1]; 0.1 μM
  STS inhibition (%): 10.9 ± 7.4%
[1]; 1 μM
  STS inhibition (%): 66.5 ± 4.5%

## CCN(Cc1ccccc1)Cc1ccc(CN2CCc3ccc(OS(N)(=O)=O)cc3C2)cc1 [Compound 11]
[1]; 0.1 μM
  inhibition at 0.1 µM: 1%
[1]; 1 μM
  inhibition at 1 µM: 17%

## CCN(Cc1ccccc1)Cc1ccc(S(=O)(=O)N2CCc3ccc(OS(N)(=O)=O)cc3C2)cc1 [Compound 14]
[1]; 0.1 μM
  inhibition at 0.1 µM: 10%
[1]; 1 μM
  inhibition at 1 µM: 31%

## O=C(c1ccc(CN(Cc2ccccn2)Cc2ccccc2OCCCN2CCCCC2)cc1)N1CCc2ccc(O)cc2C1 [Compound 19, (7-hydroxy-3,4-dihydroisoquinolin-2(1H)-yl)(4-{[{2-[3-(piperidin-1-yl)propoxy]benzyl}(pyridin-2-ylmethyl)amino]methyl}phenyl)methanone]
[2]
  activity at 0.01 µM: 103 ± 6.9%
  activity at 0.1 µM: 99.8 ± 4.2%
  activity at 1 µM: 37.1 ± 4.2%

## O=C(c1ccc(CN(Cc2ccc(OCCCN3CCCCC3)cc2)Cc2ccccn2)cc1)N1CCc2ccc(O)cc2C1 [Compound 20, (7-hydroxy-3,4-dihydroisoquinolin-2(1H)-yl)(4-{[{4-[3-(piperidin-1-yl)propoxy]benzyl}(pyridin-2-ylmethyl)amino]methyl}phenyl)methanone]
[2]
  activity at 0.01 µM: 105.9 ± 1%
  activity at 0.1 µM: 104 ± 4.8%
  activity at 1 µM: 60.7 ± 6.4%

## O=C(c1ccc(CN(Cc2ccco2)Cc2ccccc2OCCCN2CCCCC2)cc1)N1CCc2ccc(O)cc2C1 [Compound 21]
[2]
  activity at 0.01 µM: 96.8 ± 1.2%
  activity at 0.1 µM: 106 ± 5.6%
  activity at 1 µM: 0%

## O=C(c1ccc(CN(Cc2ccc(OCCCN3CCCCC3)cc2)Cc2ccco2)cc1)N1CCc2ccc(O)cc2C1 [Compound 22, (4-{[(furan-2-ylmethyl){4-[3-(piperidin-1-yl)propoxy]benzyl}amino]methyl}phenyl)(7-hydroxy-3,4-dihydroisoquinolin-2(1H)-yl)methanone]
[2]
  activity at 0.01 µM: 95.6 ± 1.8%
  activity at 0.1 µM: 120 ± 4.8%
  activity at 1 µM: 134 ± 3%

## O=C(c1ccc(CN(CCCn2ccnc2)Cc2ccccn2)cc1)N1CCc2ccc(O)cc2C1 [Compound 23, (7-hydroxy-3,4-dihydroisoquinolin-2(1H)-yl)[4-({[3-(1H-imidazol-1-yl)propyl](pyridin-2-ylmethyl)amino}methyl)phenyl]methanone]
[2]
  activity at 0.01 µM: 103 ± 2.2%
  activity at 0.1 µM: 113 ± 3.7%
  activity at 1 µM: 39.2 ± 2.9%

## O=C(c1ccc(CN(CCCn2ccnc2)Cc2ccco2)cc1)N1CCc2ccc(O)cc2C1 [Compound 24, [4-({(furan-2-ylmethyl)[3-(1H-imidazol-1-yl)propyl]amino}methyl)phenyl](7-hydroxy-3,4-dihydroisoquinolin-2(1H)-yl)methanone]
[2]
  activity at 0.01 µM: 94.9 ± 1.3%
  activity at 0.1 µM: 98.5 ± 4.5%
  activity at 1 µM: 115 ± 5.9%
